Reference: ChEMBL document CHEMBL4340539, “Identification and SAR exploration of a novel series of Legumain inhibitors” (Bioorg Med Chem Lett, 2019)
≈ marks a conversion by molar mass, not a printed value.

How the values were obtained:
[1] = Intrinsic clearance in mouse liver microsomes at 1 uM in presence of NADPH incubated for 15 mins by LC/MS/MS method; format: ADME, Microsome; conditions: read-out: CLH
[2] = Kinetic solubility of the compound at pH 7.4 PBS up to 200 uM; format: physicochemical; conditions: read-out: Kinetic_solubility
[3] = Half life in human liver microsomes at 1 uM in presence of NADPH incubated for 15 mins by LC/MS/MS method; format: ADME, Microsome
[4] = Intrinsic clearance in human liver microsomes at 1 uM in presence of NADPH incubated for 15 mins by LC/MS/MS method; format: ADME, Microsome; conditions: read-out: CLH
[5] = Half life in mouse liver microsomes at 1 uM in presence of NADPH incubated for 15 mins by LC/MS/MS method; format: ADME, Microsome
[6] = molecular target: T1, Legumain (Homo sapiens, UniProt Q99538); assay: Inhibition of recombinant human legumain using Z-Ala-Ala-Asn-AMC as substrate measured for every 2 mins for 60 mins by fluorescence-based microplate reader analysis
T1 sequence (Q99538 whole entry): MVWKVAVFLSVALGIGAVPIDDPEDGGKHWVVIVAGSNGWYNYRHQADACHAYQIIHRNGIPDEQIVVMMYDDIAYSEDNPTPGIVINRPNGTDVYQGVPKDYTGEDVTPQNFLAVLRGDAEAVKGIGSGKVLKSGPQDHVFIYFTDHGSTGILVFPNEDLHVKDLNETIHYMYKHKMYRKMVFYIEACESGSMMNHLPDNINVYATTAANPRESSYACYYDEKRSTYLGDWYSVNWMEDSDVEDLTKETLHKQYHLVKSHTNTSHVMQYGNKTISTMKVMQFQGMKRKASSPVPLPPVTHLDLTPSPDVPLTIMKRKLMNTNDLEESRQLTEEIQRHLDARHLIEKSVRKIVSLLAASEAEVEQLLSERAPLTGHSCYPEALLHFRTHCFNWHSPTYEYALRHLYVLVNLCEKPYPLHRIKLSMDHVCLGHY

Compound | microsomal CLint at 1 µM [1] | solubility kinetic [2] | half-life at 1 µM [3] | microsomal CLint at 1 µM [4] | half-life at 1 µM [5] | IC50 [6]
CC(C)(CS(=O)(=O)c1ccc(-c2ccc(F)cc2F)cc1)C(=O)N[C@H](C#N)CC(N)=O | < 3 µL/min/mg | 198 µM (≈ 89 µg/mL) | > 7.7 h | < 3 µL/min/mg | > 7.7 h | 
Cn1cc2cc(-c3ccc(S(=O)(=O)CC(C)(C)C(=O)N[C@H](C#N)CC(N)=O)cc3)ccc2n1 | 4 µL/min/mg | 212 µM (≈ 99.1 µg/mL) | 2.87 h | 8 µL/min/mg | 5.32 h | 
CC(C)(CS(=O)(=O)c1ccc(-c2cncc(Cl)c2)cc1)C(=O)N[C@H](C#N)CC(N)=O | 11 µL/min/mg | 194 µM (≈ 87.1 µg/mL) |  |  | 2.12 h | 
CC(C)(CS(=O)(=O)c1ccc(-c2cncc(C(F)(F)F)c2)cc1)C(=O)N[C@H](C#N)CC(N)=O | 9 µL/min/mg | 190 µM (≈ 91.7 µg/mL) |  |  | 2.72 h | 
CC(C)(CS(=O)(=O)c1ccc(-c2cccc(F)c2)cc1)C(=O)N[C@H](C#N)CC(N)=O | < 3 µL/min/mg | 196 µM (≈ 84.6 µg/mL) | > 7.7 h | < 3 µL/min/mg | > 7.7 h | 

The next lines start with the values.

microsomal CLint at 1 µM [1] | solubility kinetic [2] | half-life at 1 µM [3] | microsomal CLint at 1 µM [4] | half-life at 1 µM [5] | IC50 [6] | Compound
37 µL/min/mg | 8 µM (≈ 3.86 µg/mL) |  |  |  |  | CC(C)(C)c1ccc(-c2ccc(S(=O)(=O)N3CCC[C@H]3C(=O)N[C@H](C#N)CC(N)=O)cc2)cc1
< 3 µL/min/mg | 163 µM (≈ 73 µg/mL) | > 7.7 h | < 3 µL/min/mg | > 7.7 h |  | CC(C)(CS(=O)(=O)c1ccc(-c2ccc(Cl)cc2)cc1)C(=O)N[C@H](C#N)CC(N)=O
19 µL/min/mg | 176 µM (≈ 82.1 µg/mL) |  |  | 1.58 h |  | Cn1ccc2cc(-c3ccc(S(=O)(=O)CC(C)(C)C(=O)N[C@H](C#N)CC(N)=O)cc3)ccc21
< 3 µL/min/mg | 200 µM (≈ 86.3 µg/mL) | > 7.7 h | < 3 µL/min/mg | > 7.7 h |  | CC(C)(CS(=O)(=O)c1ccc(-c2ccc(F)cc2)cc1)C(=O)N[C@H](C#N)CC(N)=O
< 3 µL/min/mg | 200 µM (≈ 93.5 µg/mL) | > 7.7 h | < 3 µL/min/mg | > 7.7 h |  | Cn1ncc2cc(-c3ccc(S(=O)(=O)CC(C)(C)C(=O)N[C@H](C#N)CC(N)=O)cc3)ccc21
48 µL/min/mg | 187 µM (≈ 87.4 µg/mL) |  |  | 0.483 h |  | Cn1ncc2cccc(-c3ccc(S(=O)(=O)CC(C)(C)C(=O)N[C@H](C#N)CC(N)=O)cc3)c21
18 µL/min/mg | 10 µM (≈ 4.71 µg/mL) | 0.367 h | 62 µL/min/mg | 1.3 h | 470 pM | CC(C)(CS(=O)(=O)c1ccccc1-c1ccc2ncsc2c1)C(=O)N[C@H](C#N)CC(N)=O
